# Experimental data from patent US8921362B2, “6,7-dialkoxy quinazoline derivatives and methods of treating drug resistant and other tumors” (Natco Pharma Limited, priority 2008, dated 2014).
# Assays:
# Assay in all cases: KinomeScan
# Format in all cases: binding
# Conditions in all cases: read-out: % Ctrl @ 10000 nM
# TRKB = molecular target: T1, TRKB (Homo sapiens, UniProt Q16620)
# T1 construct: host or cells: E. coli host derived from BL21, T7 phage
# How it was run: (§1)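 Each kinase was expressed as a T7 phage fusion, with lysates produced in log-phase BL21-derived E. coli. Captured phage after compound competition was measured by qPCR.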
# CDK7 = molecular target: T2, CDK7 (Homo sapiens, UniProt P50613)
# T2 construct: host or cells: T7 phage in E. coli host derived from BL21
# How it was run: as §1
# PCTK2 = molecular target: T3, PCTK2 (Homo sapiens, UniProt Q00537)
# T3 construct: host or cells: E. coli host derived from BL21, infected with T7 phage
# How it was run: as §1
# ERK4 = molecular target: T4, ERK4 (Homo sapiens, UniProt P31152)
# T4 construct: purchased Ambit Biosciences Corp; host or cells: T7 phage in E. coli host derived from BL21
# How it was run: as §1
# ANKK1 = molecular target: T5, ANKK1 (Homo sapiens, UniProt Q8NFD2)
# T5 construct: host or cells: E. coli (BL21-derived), T7 phage lysate
# How it was run: as §1
# PDGFRB = molecular target: T6, PDGFRB (Homo sapiens, UniProt P09619)
# T6 construct: host or cells: E. coli host derived from BL21, infected with T7 phage
# How it was run: as §1
# CAMK1 = molecular target: T7, CAMK1 (Homo sapiens, UniProt Q14012)
# T7 construct: host or cells: E. coli host derived from BL21
# How it was run: as §1
# ABL1(Q252H) = molecular target: T8, ABL1(Q252H) (Homo sapiens, UniProt P00519, Q252H)
# T8 construct: host or cells: E. coli (BL21-derived), T7 phage lysate
# How it was run: as §1
# BMX = molecular target: T9, BMX (Homo sapiens, UniProt P51813)
# T9 construct: host or cells: E. coli host derived from BL21
# How it was run: as §1
# PRKD3 = molecular target: T10, PRKD3 (Homo sapiens, UniProt O94806)
# T10 construct: host or cells: T7 phage in E. coli host derived from BL21
# How it was run: as §1
# TRKA = molecular target: T11, TRKA (Homo sapiens, UniProt P04629)
# T11 construct: host or cells: E. coli host derived from BL21, T7 phage
# How it was run: as §1
# HCK = molecular target: T12, HCK (Homo sapiens, UniProt P08631)
# T12 construct: host or cells: T7 phage in E. coli host derived from BL21
# How it was run: as §1
# FLT3(D835Y) = molecular target: T13, FLT3(D835Y) (Homo sapiens, UniProt P36888, D835Y)
# T13 construct: host or cells: T7 phage in E. coli host derived from BL21
# How it was run: as §1
# EGFR(G719C) = molecular target: T14, EGFR(G719C) (Homo sapiens, UniProt P00533, G719C)
# T14 construct: purchased Ambit Biosciences Corp (KinomeScan); host or cells: T7 phage in E. coli host derived from BL21
# How it was run: as §1
# GSK3B = molecular target: T15, GSK3B (Homo sapiens, UniProt P49841)
# T15 construct: host or cells: T7 phage in E. coli host derived from BL21
# How it was run: as §1
# MAPKAPK2 = molecular target: T16, MAPKAPK2 (Homo sapiens, UniProt P49137)
# T16 construct: host or cells: E. coli host derived from the BL21 strain, infected with T7 phage
# How it was run: as §1
# MEK3 = molecular target: T17, MEK3 (Homo sapiens, UniProt P46734)
# T17 construct: host or cells: E. coli host derived from the BL21 strain, infected with T7 phage
# How it was run: as §1
# MARK4 = molecular target: T18, MARK4 (Homo sapiens, UniProt Q96L34)
# T18 construct: host or cells: E. coli host derived from the BL21 strain, infected with T7 phage
# How it was run: as §1
# TTK = molecular target: T19, TTK (Homo sapiens, UniProt P33981)
# T19 construct: host or cells: E. coli host derived from BL21, T7 phage
# How it was run: as §1
# PKN2 = molecular target: T20, PKN2 (Homo sapiens, UniProt Q16513)
# T20 construct: host or cells: T7 phage in E. coli host derived from BL21
# How it was run: as §1
# MST3 = molecular target: T21, MST3 (Homo sapiens, UniProt Q9Y6E0)
# T21 construct: host or cells: T7 phage grown in E. coli host derived from BL21
# How it was run: as §1
# [1] = molecular target: T22, RPS6KA1(Kin.Dom.-1-N-terminal) (Homo sapiens, UniProt Q15418)
# T22 construct: RPS6KA1(Kin.Dom.-1-N-terminal); host or cells: E. coli host derived from BL21, T7 phage display
# How it was run: as §1
# p38-gamma = molecular target: T23, p38-gamma (Homo sapiens, UniProt P53778)
# T23 construct: host or cells: E. coli host derived from BL21, infected with T7 phage
# How it was run: as §1
# [2] = molecular target: T24, EGFR(L747-E749del, A750P) (Homo sapiens, UniProt P00533, A750P/DEL747-749)
# T24 construct: purchased Ambit Biosciences Corp (KinomeScan); host or cells: T7 phage in E. coli host derived from BL21
# How it was run: as §1
# ABL1(Y253F) = molecular target: T25, ABL1(Y253F) (Homo sapiens, UniProt P00519, Y253F)
# T25 construct: host or cells: E. coli (BL21-derived), T7 phage lysate
# How it was run: as §1
# PCTK3 = molecular target: T26, PCTK3 (Homo sapiens, UniProt Q07002)
# T26 construct: host or cells: E. coli host derived from BL21, infected with T7 phage
# How it was run: as §1
# PIP5K1A = molecular target: T27, PIP5K1A (Homo sapiens, UniProt Q99755)
# T27 construct: host or cells: T7 phage in E. coli host derived from BL21
# How it was run: as §1
# DDR2 = molecular target: T28, DDR2 (Homo sapiens, UniProt Q16832)
# T28 construct: purchased Ambit Biosciences Corp (KinomeScan); host or cells: T7 phage in E. coli host derived from BL21
# How it was run: as §1
# LYN = molecular target: T29, LYN (Homo sapiens, UniProt P07948)
# T29 construct: host or cells: E. coli host derived from the BL21 strain, infected with T7 phage
# How it was run: as §1
# MARK3 = molecular target: T30, MARK3 (Homo sapiens, UniProt P27448)
# T30 construct: host or cells: E. coli host derived from the BL21 strain, infected with T7 phage
# How it was run: as §1
# TNK2 = molecular target: T31, TNK2 (Homo sapiens, UniProt Q07912)
# T31 construct: host or cells: E. coli host derived from BL21, T7 phage
# How it was run: as §1
# PDGFRA = molecular target: T32, PDGFRA (Homo sapiens, UniProt P16234)
# T32 construct: host or cells: E. coli host derived from BL21, infected with T7 phage
# How it was run: as §1
# TNIK = molecular target: T33, TNIK (Homo sapiens, UniProt Q9UKE5)
# T33 construct: host or cells: E. coli host derived from BL21, T7 phage
# How it was run: as §1
# T18 sequence (Q96L34 whole entry): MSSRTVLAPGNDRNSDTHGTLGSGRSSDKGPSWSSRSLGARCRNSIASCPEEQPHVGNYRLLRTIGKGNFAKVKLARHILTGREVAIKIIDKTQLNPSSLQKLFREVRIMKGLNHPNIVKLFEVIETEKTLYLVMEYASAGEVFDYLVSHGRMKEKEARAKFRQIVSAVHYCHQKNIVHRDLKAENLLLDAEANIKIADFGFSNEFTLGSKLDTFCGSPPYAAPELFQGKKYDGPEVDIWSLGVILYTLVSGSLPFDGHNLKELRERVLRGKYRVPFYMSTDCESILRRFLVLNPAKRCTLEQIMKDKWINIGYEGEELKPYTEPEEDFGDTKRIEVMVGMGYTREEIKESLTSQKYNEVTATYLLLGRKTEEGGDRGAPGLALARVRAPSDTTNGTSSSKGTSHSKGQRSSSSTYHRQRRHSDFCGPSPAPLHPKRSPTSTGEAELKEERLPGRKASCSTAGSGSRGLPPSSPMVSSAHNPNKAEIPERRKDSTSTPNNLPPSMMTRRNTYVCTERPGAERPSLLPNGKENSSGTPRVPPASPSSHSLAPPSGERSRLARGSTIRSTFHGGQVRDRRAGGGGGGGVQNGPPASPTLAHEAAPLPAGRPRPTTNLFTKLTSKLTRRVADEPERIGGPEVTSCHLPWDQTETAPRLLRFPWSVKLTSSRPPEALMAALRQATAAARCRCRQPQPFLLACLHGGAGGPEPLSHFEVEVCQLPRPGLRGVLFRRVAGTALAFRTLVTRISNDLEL
# T20 sequence (Q16513 whole entry): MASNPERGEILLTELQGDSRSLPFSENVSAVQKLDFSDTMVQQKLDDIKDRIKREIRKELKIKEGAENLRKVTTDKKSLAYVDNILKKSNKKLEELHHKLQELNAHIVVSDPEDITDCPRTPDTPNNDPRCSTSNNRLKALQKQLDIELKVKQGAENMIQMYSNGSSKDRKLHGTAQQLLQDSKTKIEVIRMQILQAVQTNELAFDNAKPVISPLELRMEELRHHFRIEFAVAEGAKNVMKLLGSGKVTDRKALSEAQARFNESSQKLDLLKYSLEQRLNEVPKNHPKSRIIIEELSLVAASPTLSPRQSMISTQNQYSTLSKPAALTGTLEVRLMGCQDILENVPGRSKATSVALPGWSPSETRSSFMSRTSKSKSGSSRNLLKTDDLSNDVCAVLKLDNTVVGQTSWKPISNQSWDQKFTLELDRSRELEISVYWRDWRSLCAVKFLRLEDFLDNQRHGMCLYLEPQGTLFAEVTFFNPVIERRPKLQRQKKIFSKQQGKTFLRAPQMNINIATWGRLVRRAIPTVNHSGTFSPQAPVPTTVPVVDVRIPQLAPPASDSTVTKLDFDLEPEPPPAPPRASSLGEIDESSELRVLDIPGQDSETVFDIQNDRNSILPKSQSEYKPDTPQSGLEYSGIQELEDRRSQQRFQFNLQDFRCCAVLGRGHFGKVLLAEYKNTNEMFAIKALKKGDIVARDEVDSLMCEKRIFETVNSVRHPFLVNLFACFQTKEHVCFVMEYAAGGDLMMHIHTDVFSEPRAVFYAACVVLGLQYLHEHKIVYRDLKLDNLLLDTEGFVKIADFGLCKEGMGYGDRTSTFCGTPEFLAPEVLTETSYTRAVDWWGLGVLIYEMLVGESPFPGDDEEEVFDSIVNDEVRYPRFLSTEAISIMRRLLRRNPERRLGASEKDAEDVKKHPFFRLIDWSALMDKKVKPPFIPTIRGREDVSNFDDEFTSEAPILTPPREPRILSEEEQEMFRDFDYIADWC
# T12 sequence (P08631 whole entry): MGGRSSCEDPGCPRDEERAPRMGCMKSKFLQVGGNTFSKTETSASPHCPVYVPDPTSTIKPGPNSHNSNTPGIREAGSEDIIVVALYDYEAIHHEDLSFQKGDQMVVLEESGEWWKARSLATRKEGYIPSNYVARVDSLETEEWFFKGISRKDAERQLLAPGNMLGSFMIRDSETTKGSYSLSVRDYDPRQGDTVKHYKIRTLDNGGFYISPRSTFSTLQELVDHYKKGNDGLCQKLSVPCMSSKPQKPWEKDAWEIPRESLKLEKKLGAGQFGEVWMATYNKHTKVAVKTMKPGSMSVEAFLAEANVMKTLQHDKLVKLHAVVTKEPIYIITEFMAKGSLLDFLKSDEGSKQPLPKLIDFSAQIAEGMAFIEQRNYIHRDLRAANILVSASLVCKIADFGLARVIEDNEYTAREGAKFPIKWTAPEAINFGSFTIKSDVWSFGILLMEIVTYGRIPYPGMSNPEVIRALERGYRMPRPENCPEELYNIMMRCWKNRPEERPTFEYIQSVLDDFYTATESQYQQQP
# T11 sequence (P04629 33-796): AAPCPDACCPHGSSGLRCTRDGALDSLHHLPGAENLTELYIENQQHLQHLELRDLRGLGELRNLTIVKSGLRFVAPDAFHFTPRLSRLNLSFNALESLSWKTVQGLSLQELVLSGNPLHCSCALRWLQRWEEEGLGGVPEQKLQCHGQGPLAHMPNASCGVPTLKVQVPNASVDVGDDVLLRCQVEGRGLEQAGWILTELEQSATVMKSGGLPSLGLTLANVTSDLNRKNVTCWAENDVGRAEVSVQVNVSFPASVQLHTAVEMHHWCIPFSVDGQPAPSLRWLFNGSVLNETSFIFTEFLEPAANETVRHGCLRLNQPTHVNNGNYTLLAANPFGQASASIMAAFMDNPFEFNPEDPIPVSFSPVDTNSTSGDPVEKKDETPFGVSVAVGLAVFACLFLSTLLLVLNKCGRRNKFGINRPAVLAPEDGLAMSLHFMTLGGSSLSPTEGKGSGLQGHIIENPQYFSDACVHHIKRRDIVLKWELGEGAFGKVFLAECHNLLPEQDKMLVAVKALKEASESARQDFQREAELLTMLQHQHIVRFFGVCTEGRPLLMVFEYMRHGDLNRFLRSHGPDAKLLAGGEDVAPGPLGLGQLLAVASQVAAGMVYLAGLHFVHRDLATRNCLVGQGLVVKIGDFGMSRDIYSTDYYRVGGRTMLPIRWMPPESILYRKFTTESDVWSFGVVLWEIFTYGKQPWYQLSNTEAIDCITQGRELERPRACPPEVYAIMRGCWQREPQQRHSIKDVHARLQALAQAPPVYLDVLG
# T9 sequence (P51813 whole entry): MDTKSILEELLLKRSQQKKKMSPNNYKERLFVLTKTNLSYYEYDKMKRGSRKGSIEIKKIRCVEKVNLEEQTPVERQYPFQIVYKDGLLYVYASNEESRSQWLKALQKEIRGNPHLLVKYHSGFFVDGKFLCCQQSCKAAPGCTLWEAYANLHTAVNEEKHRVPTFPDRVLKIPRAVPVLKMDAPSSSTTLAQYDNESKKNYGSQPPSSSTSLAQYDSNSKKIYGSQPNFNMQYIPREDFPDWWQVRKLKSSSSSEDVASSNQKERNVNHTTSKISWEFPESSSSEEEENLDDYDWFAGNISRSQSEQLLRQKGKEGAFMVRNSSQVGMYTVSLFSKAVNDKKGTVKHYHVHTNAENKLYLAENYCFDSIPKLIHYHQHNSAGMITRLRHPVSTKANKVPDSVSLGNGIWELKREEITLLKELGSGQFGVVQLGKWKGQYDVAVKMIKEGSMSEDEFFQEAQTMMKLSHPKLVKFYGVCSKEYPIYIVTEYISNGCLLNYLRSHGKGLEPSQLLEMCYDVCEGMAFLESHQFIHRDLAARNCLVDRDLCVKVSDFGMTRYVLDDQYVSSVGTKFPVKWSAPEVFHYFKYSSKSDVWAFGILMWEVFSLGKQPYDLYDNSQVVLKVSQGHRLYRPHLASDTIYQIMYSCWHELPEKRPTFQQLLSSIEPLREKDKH
# T5 sequence (Q8NFD2 whole entry): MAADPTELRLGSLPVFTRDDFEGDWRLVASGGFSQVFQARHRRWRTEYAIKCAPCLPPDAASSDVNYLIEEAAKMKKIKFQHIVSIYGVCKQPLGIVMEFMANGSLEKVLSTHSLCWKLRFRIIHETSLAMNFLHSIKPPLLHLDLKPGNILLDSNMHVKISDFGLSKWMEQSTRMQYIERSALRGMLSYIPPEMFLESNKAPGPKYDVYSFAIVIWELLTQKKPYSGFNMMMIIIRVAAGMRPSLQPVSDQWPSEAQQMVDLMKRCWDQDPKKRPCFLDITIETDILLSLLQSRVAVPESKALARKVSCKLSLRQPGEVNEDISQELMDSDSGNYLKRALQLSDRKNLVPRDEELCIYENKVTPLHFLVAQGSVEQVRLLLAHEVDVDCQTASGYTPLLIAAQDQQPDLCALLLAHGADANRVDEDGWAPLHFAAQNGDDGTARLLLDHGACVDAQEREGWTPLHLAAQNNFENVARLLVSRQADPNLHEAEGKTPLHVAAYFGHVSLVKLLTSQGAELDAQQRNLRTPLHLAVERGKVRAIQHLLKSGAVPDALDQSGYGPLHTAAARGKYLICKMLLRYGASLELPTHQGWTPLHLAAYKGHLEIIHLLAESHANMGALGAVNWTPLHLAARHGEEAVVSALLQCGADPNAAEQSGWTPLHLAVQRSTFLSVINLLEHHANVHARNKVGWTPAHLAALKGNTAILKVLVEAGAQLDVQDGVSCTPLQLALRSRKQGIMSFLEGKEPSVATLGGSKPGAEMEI
# T23 sequence (P53778 whole entry): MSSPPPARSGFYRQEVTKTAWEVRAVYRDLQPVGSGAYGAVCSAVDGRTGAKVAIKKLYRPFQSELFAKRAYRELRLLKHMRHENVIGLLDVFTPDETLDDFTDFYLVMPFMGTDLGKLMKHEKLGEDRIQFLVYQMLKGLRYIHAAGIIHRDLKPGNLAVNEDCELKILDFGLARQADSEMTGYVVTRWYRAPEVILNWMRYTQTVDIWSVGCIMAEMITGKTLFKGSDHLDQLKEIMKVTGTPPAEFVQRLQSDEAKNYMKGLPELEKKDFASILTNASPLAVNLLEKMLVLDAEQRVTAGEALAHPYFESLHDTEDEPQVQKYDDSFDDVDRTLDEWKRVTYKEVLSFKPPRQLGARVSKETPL
compound,measurement,setting,value
"C#Cc1cccc(Nc2ncnc3cc(OC)c(OCCCN4CCOCC4)cc23)c1 [NRC-2694, N-(3-ethynylphenyl)-7-methoxy-6-[3-(4-morpholinyl)propoxy]-4-quinazolinamine]",remaining binding at 10 µM,TRKB,73%
same,remaining binding at 10 µM,CDK7,0.55%
same,remaining binding at 10 µM,PCTK2,72%
same,remaining binding at 10 µM,ERK4,3.7%
same,remaining binding at 10 µM,ANKK1,73%
same,remaining binding at 10 µM,PDGFRB,10%
same,remaining binding at 10 µM,CAMK1,65%
same,remaining binding at 10 µM,ABL1(Q252H),15%
same,remaining binding at 10 µM,BMX,73%
same,remaining binding at 10 µM,PRKD3,7.2%
same,remaining binding at 10 µM,TRKA,100%
same,remaining binding at 10 µM,HCK,17%
same,remaining binding at 10 µM,FLT3(D835Y),9.4%
same,remaining binding at 10 µM,EGFR(G719C),0%
same,remaining binding at 10 µM,GSK3B,100%
same,remaining binding at 10 µM,MAPKAPK2,90%
same,remaining binding at 10 µM,MEK3,100%
same,remaining binding at 10 µM,MARK4,100%
same,remaining binding at 10 µM,TTK,48%
same,remaining binding at 10 µM,PKN2,31%
same,remaining binding at 10 µM,MST3,42%
same,remaining binding at 10 µM,[1],100%
same,remaining binding at 10 µM,p38-gamma,97%
same,remaining binding at 10 µM,[2],0%
same,remaining binding at 10 µM,ABL1(Y253F),23%
same,remaining binding at 10 µM,PCTK3,82%
same,remaining binding at 10 µM,PIP5K1A,61%
same,remaining binding at 10 µM,DDR2,76%
same,remaining binding at 10 µM,LYN,13%
same,remaining binding at 10 µM,MARK3,62%
same,remaining binding at 10 µM,TNK2,37%
same,remaining binding at 10 µM,PDGFRA,50%
same,remaining binding at 10 µM,TNIK,17%
